Molecules are shown by their SMILES. Values after ≈ are worked out from the molar mass of the structure shown.

The conditions of the series: buffer; pH 7.4; 200.0 µM.
By kinetic solubility is commonly meant the concentration staying in solution when a stock, usually in DMSO, is diluted into the medium. In turn, `CC(C)(C)c1ccc(SCCc2ccncc2)cc1` returned a kinetic solubility of 6.5 µg/mL (≈ 23.9 µM). For `O=C(NC1CC1)c1cccc(Oc2ccccc2)c1` the value was over 38 µg/mL.

Compound `CCCCN1C(=O)c2ccc(C(=O)NCc3ccco3)cc2C1=O` showed a kinetic solubility of 17.9 µg/mL (≈ 54.8 µM). The result for `CC(C)[C@H](NC(N)=O)C(=O)NCCc1ccc(Cl)cc1` reads over 44.7 µg/mL; that for `Cc1cc(=O)n(Cc2ccccc2)c2c(C)cccc12`, under 0.6 µg/mL.

`COc1ccc(NC(=O)N2CCCC(c3ccccc3)C2)cc1` (centres undefined) gave a solubility (kinetic) of 27.8 µg/mL (≈ 89.6 µM). The result for `CC1=NOC(=O)/C1=C\c1ccc(-c2ccc(Cl)c(C(=O)O)c2)o1` reads over 49.8 µg/mL; that for `CSc1nc2sc3c(c2c(=S)[nH]1)CC(C)(C)OC3`, 10.6 µg/mL (≈ 35.5 µM). Compound `O=C(CN1C(=O)S/C(=C\c2ccccn2)C1=O)Nc1ccc(F)cc1` came in with a solubility (kinetic) of 0.9 µg/mL (≈ 2.52 µM).

Take `COC(=O)Cn1c2ccc(Cl)cc2c2nc(C)sc21`: the solubility (kinetic) worked out at 35.3 µg/mL (≈ 120 µM). The compound `CC1(C)Cc2c(c(N3CCCC3)nc3sc4c(N5CCNCC5)ncnc4c23)CO1` came in with a kinetic solubility of 28.6 µg/mL (≈ 67.4 µM).

`CSCCC(NS(=O)(=O)/C=C/c1ccccc1)C(=O)O` (centres undefined) returned a solubility (kinetic) of over 47.3 µg/mL.

`Cc1cccc(Nc2nnc(SCC(=O)NCC3CCCO3)s2)c1` (centres undefined) had a kinetic solubility of over 54.7 µg/mL. For the compound `Cc1nn(C)cc1S(=O)(=O)N1CCCCC1C` (centres undefined), the kinetic solubility was over 38.6 µg/mL. For `CN(c1ccccc1)c1nc(N)c([N+](=O)[O-])c(N2CCCCCC2)n1` the value was 2.6 µg/mL (≈ 7.59 µM); for `CC(C)N=C(NS(=O)(=O)c1cccs1)c1ccccc1`, over 46.3 µg/mL. The result for `N#Cc1ccccc1S(=O)(=O)N1CCN(C(=O)C2CCCCC2)CC1` reads over 54.2 µg/mL; that for `Nc1nonc1C(=O)NCCNC(=O)c1cccc(Cl)c1`, 45.8 µg/mL (≈ 148 µM). For `Cc1ccccc1N=CC1=C(O)c2ccccc2C1=O` the value was under 0.6 µg/mL; for `CCN(c1ccccc1)S(=O)(=O)c1ccc2ccccc2c1`, 4.9 µg/mL (≈ 15.7 µM); for `COc1ccccc1C(=O)Nc1cccc2cccnc12`, under 0.3 µg/mL. The compound `Cc1ccc(OCCC(=O)Nc2ccc3c(c2)OCO3)cc1` yielded a kinetic solubility of 14.8 µg/mL (≈ 49.4 µM).

`CC(C)c1ccc(N(C)C(=O)Cc2c(C(=O)O)n(C)c3ccccc23)cc1`: the kinetic solubility was over 54.7 µg/mL.

Take `COc1ccc(CNC(=O)CNC(=O)c2ccc(Br)o2)cc1OC`: the solubility (kinetic) amounted to 53.1 µg/mL (≈ 134 µM). For `CCOc1c(Nc2cccc(Cl)c2)c(=O)c1=O` the value was over 37.8 µg/mL. For `CC(C(=O)O)c1ccc(N2Cc3ccccc3C2=O)cc1` (centres undefined) the value was over 42.2 µg/mL; for `CCn1c(=O)c(C(=O)CC#N)c(N)n(Cc2ccccc2)c1=O`, 4.1 µg/mL (≈ 13.1 µM). For `CCc1ccccc1N1CC(C(=O)N2Cc3ccccc3CC2C(N)=O)CC1=O` (centres undefined) the value was over 58.7 µg/mL.

With `COc1ccccc1C(=O)NCCC(=O)NCCOc1ccccc1`, the kinetic solubility was over 51.4 µg/mL. For `COc1ccc(C(=O)CNc2cccc(F)c2)cc1` the value was 4.3 µg/mL (≈ 16.6 µM); for `O=C(Cc1ncc(C(F)(F)F)cc1Cl)NCc1cccnc1`, over 49.5 µg/mL; for `Cc1cc(Br)ccc1NC(=O)C1C2CCC(O2)C1C(=O)O` (centres undefined), over 53.1 µg/mL.

`O=c1[nH]c2ccccc2c2oc(CCl)nc12` showed a solubility (kinetic) of 12.5 µg/mL (≈ 53.3 µM).

In turn, `Cc1ccc(Sc2ncccc2N)cc1` had a solubility (kinetic) of 32.2 µg/mL (≈ 149 µM). `COc1ccc(CCNC(=O)COC(=O)CCC(=O)c2ccc(F)cc2)cc1` displayed a solubility (kinetic) of 15.9 µg/mL (≈ 41 µM). For `N/C(=N/O)c1nc(N2CCCC2)nc(N2CCCC2)n1` the value was over 41.6 µg/mL. The result for `CCc1ccc(Nc2ccc(C(=O)O)cc2[N+](=O)[O-])cc1` reads over 42.9 µg/mL; that for `Cc1cccc(SCC(=O)Nc2ccccc2[N+](=O)[O-])c1`, 3.7 µg/mL (≈ 12.2 µM). With `Clc1cccc(CN2CCCCCC2)c1Cl`, the solubility (kinetic) amounted to 4.8 µg/mL (≈ 18.6 µM). For `COc1ccc(-n2c(=S)[nH]c3ncccc3c2=O)cc1` the value was 1.5 µg/mL (≈ 5.26 µM); for `CC(C)c1ccc(NC(=O)COC(=O)CC2CCCC2)cc1`, 7.8 µg/mL (≈ 25.7 µM). The result for `O=C(O)CNC(=S)N(Cc1ccccc1)Cc1ccccc1F` reads 47.4 µg/mL (≈ 143 µM); that for `Cc1c(Cl)cccc1NC(=S)NCCc1ccc(Cl)cc1`, 0.4 µg/mL (≈ 1.18 µM). In the case of `CCN(CC)c1ccc(C(=O)OCC(=O)Nc2ncccn2)cc1`, the solubility (kinetic) is 2.4 µg/mL (≈ 7.31 µM). The result for `N/C(=N\OC(=O)c1cccs1)C1(c2ccc(Cl)cc2Cl)CC1` reads 12.3 µg/mL (≈ 34.6 µM).

For `CC(=O)Nc1nc(C)c(Oc2ccc(C)cc2)c(=O)[nH]1`, the solubility (kinetic) worked out at 39.6 µg/mL (≈ 145 µM).

`O=C(O)C1CCCCC1C(=O)NC1C2CC3CC(C2)CC1C3` (centres undefined): the solubility (kinetic) was 42.4 µg/mL (≈ 139 µM).

Take `O=C(COc1ccccc1)Nc1ccncc1`: the solubility (kinetic) was over 34.2 µg/mL.

`Cc1ccc(NS(=O)(=O)c2ccc(NC(=O)c3ccccc3C(=O)O)cc2)c(C)c1` registered a kinetic solubility of over 63.7 µg/mL. For `CC(=O)Nc1ccc(NC2=CC(=O)c3ccccc3C2=O)cc1` the value was 1.1 µg/mL (≈ 3.59 µM); for `O=C(Nc1ccc(N2CCOCC2)cc1)c1ccc([N+](=O)[O-])o1`, 13.2 µg/mL (≈ 41.6 µM). The compound `CCC(C)NC(=O)CN1C(=O)NC2NC(=O)NC21` (centres undefined) gave a kinetic solubility of over 38.3 µg/mL. Take `Cc1ccc2c(CN(C)Cc3cccc(F)c3)cc(=O)oc2c1C`: the kinetic solubility was 2.9 µg/mL (≈ 8.91 µM). For `CN(CC(=O)Nc1cccc(F)c1)C(=O)CC1CC2CCC1C2` (centres undefined) the value was 4 µg/mL (≈ 12.6 µM). For `O=C(CSc1ncccn1)Nc1ccc(Cl)c(S(=O)(=O)N2CCOCC2)c1` the value was over 64.3 µg/mL; for `Cl.O=S(=O)(CCc1ccncc1)c1ccc(Cl)cc1`, over 47.7 µg/mL; for `CC1CC2c3cccc(C(=O)O)c3C(=O)N2c2ccc(Cl)cc21` (centres undefined), over 49.2 µg/mL. The result for `O=[N+]([O-])c1c(NCCO)cc(N2CCC3(CC2)OCCO3)c2nonc12` reads over 54.8 µg/mL; that for `Cc1cc(C)c2c(ccc3cccc[n+]32)c1.[O-][Cl+3]([O-])([O-])[O-]`, over 46.2 µg/mL; that for `Clc1ncccc1OCc1ccccc1`, 14.6 µg/mL (≈ 66.5 µM). `O=C(CCN1C(=O)c2ccccc2S1(=O)=O)Nc1ccc(Cl)cc1` displayed a solubility (kinetic) of 0.9 µg/mL (≈ 2.47 µM). For `CN(C)c1ccc(C(=O)/C=C/c2cccnc2)cc1` the value was 6.7 µg/mL (≈ 26.6 µM); for `COc1ccc(/C(C)=N/NC(=O)CNC(=O)c2cccnc2)cc1`, over 49 µg/mL. The result for `O=c1c2ccccc2nc2n1C(CSc1ccc(F)cc1)CS2` (centres undefined) reads over 51.7 µg/mL; that for `Cc1nc2ccsc2c(=O)n1-c1ccccc1Cl`, over 41.5 µg/mL. Compound `O=C(NCc1ccccc1F)c1cccc(S(=O)(=O)N2CCCCC2)c1` gave a solubility (kinetic) of 5.8 µg/mL (≈ 15.4 µM). For `Cc1ccc(NC(=O)CCc2nc3ccccc3s2)c(O)c1` the value was 8.9 µg/mL (≈ 28.5 µM). For `Cc1ccc2cc(NC(=O)CC(CC(=O)O)c3ccccc3)ccc2n1` (centres undefined) the value was 47 µg/mL (≈ 135 µM); for `Cc1cc(C)cc(N2C(=O)C3CCCN3C2=S)c1` (centres undefined), over 39.1 µg/mL.

In turn, `CCOc1cccc(C(=O)Nc2ccc3c(c2)OCCO3)c1` showed a kinetic solubility of 27.3 µg/mL (≈ 91.2 µM). The result for `Cc1ccsc1C(=O)OCC(=O)Nc1cccc(F)c1` reads 3.4 µg/mL (≈ 11.6 µM); that for `Cc1cc(C)c(NC(=O)CC(=O)c2ccccc2)c(Cl)c1`, 3.5 µg/mL (≈ 11.6 µM); that for `CC(C)Nc1nc(-c2ccncc2)nc(-c2ccccc2)c1C#N`, under 0.1 µg/mL. The result for `Cc1cccc(C)c1N1C(=O)CCC(C)(C)C1=O` reads over 36.8 µg/mL.

Values taken from PubChem BioAssay AID1996.
